Measured values published in patent US9771358B2, “Dihydropyrimidine compounds and their application in pharmaceuticals” (SUNSHINE LAKE PHARMA CO., LTD., priority 2014, dated 2017).
Read-outs that look alike come from different tables or passages of the source.

Columns and labels:
HBV = test: In-vitro anti-HBV activity in stable HBV-producing cell line (HepG2.2.15), HBV DNA by qPCR; assay type: cell-based; settings: Hepatitis B virus
Method: HBV DNA contents in cell culture fluid were detected by the qPCR-based assay and 50% effective concentration (EC50) values of the compounds against HBV were calculated. Specific procedures are as follows:
HepG2.2.15 cells were seeded into each well of 96-well plates, 40,000 cells per well. Cells were treated with cell culture medium containing compounds with different concentrations for 24 hours after cell seeding. The final concentration of each compound was 16.4 μM in each well and each compound was diluted to desired concentration using 3-fold gradient dilution protocol, 9 diluted points in duplicate. The culture mediums containing the compounds were refreshed on day 4 post cell seeding. Culture media were collected from the HepG2.2.15 plates on day 7 post cell seeding followed by HBV DNA extraction.
HBV DNA extraction: The HBV DNA extraction was performed using QIAamp 96 DNA Blood Kit (QIAGEN 51161).
PCR for quantification: PCR mix was prepared according to PCR system. PCR mix was dispensed to 96-well optical reaction plates (special for quantification). The standard diluted proportionally was added. Then the sample was added; The plates were sealed with optical adhesive film; PCR system was performed according to programs.
Percentage of HBV inhibition of DNA replication by compound was calculated using the following equation: % Inh.=[1-HBV DNA quantity of sample/HBV DNA quantity of DMSO control]×100.
Calculating EC50 value of compounds to HBV replication: the EC50 values were calculated based on “four-parameter logistic equation” and using GraphPad Prism 5 analysis software.

[1] = PK of test compounds in beagle; assay type: in vivo, beagle dog; settings: for Cmax / Tmax / clearance / half-life / AUC(0-inf) / AUC(0-t) / Vd: dog, plasma; for AUC(0-inf): AUC in 0 hour to infinite time; for Vd: read-out: Vss; for F: absolute bioavailability
Method: The test compounds were administrated to beagle dog by gavage in dose of 2.5 mg/kg or 5 mg/kg, or by intravenous injection in dose of 1 mg/kg or 2 mg/kg. Blood sample was collected at 0.083, 0.25, 0.5, 1, 2, 4, 6, 8 and 24 hours from vein after administration into anticoagulation tubes with EDTA-K2. The test compounds were extracted from plasma samples and chromatographed on a tandem mass spectrometer. Quantitation was performed using multiple reaction monitoring (MRM). Pharmacokinetic parameters were calculated using WinNonlin 6.3 software with non compartment model.

[2] = Stability in liver microsome, human; assay type: in vitro ADME; settings: liver microsomes; human liver microsome 0.1 mg/mL, compound 1 μM, NADPH 2 mM
Method: (§1) Then two parallel samples were prepared. After a 10 minutes preincubation at 37° C., 15 μL of NADPH solution (8 mM) was added according to the point-in-time. The final concentration of the text compound was 1 μM, the concentration of liver microsome was 0.1 mg/mL, the final concentration of NADPH was 2 mM. The incubations were last for 0, 15, 30, 60 min respectively, and then 150 μL of acetonitrile (include interior label) was added to the mixture system. After dilution with acetonitrile, the samples were centrifuged for 5 minutes in 4000 rpm. The supernatant liquid was collected for LC-MS/MS analysis.

[3] = Stability in liver microsome, dog; assay type: in vitro ADME; settings: liver microsomes; dog liver microsome 0.1 mg/mL, compound 1 μM, NADPH 2 mM
Method: as §1

[4] = Stability in liver microsome, mouse; assay type: in vitro ADME; settings: liver microsomes; mouse liver microsome 0.1 mg/mL, compound 1 μM, NADPH 2 mM
Method: as §1

[5] = Stability in liver microsome, monkey; assay type: in vitro ADME; settings: liver microsomes; monkey liver microsome 0.1 mg/mL, compound 1 μM, NADPH 2 mM
Method: as §1

[6] = 168 h, HepG2.2.15 cells, HBV DNA in culture fluid, day 7, top concentration 16.4 μM
[7] = iv, 1 mg/kg, iv, 1 mg/kg, AUC in 0-24 hours, read-out: AUClast
[8] = HepG2.2.15, isomers of compound of formular (II)
[9] = po, 2.5 mg/kg, po, 2.5 mg/kg value multiplied by 2, read-out: AUClast ×2 (calculated by dosage)
[10] = po, 2.5 mg/kg, po, 2.5 mg/kg, AUC in 0-24 hours, read-out: AUClast

Compound	EC50 (HBV; [6])	Cmax ([1]; iv, 1 mg/kg)	Tmax ([1]; iv, 1 mg/kg)	clearance ([1]; iv, 1 mg/kg)	half-life ([1]; iv, 1 mg/kg)	AUC(0-inf) ([1]; iv, 1 mg/kg)	AUC(0-t) [1, 7]	Vd ([1]; iv, 1 mg/kg)	CLint scaled at 1 μM [2]	half-life at 1 μM [2]	CLint scaled at 1 μM [3]	half-life at 1 μM [3]	CLint scaled at 1 μM [4]	half-life at 1 μM [4]	CLint scaled at 1 μM [5]	half-life at 1 μM [5]	EC50 (HBV; [8])	Cmax ([1]; po, 2.5 mg/kg)	Tmax ([1]; po, 2.5 mg/kg)	half-life ([1]; po, 2.5 mg/kg)	further results
CCOC(=O)C1=C(CN2CCO[C@H](CCC(=O)O)C2)NC(c2nccs2)=N[C@H]1c1ccc(F)cc1Br [Example 2, 3-((R)-4-(((R)-6-(2-Bromo-4-fluorophenyl)-5-(ethoxycarbonyl)-2-(thiazol-2-yl)-3,6-dihydropyrimidin-4-yl)methyl)morpholin-2-yl)propanoic acid]	35 nM	2050 ng/mL	0.083 h	1.93 mL/min/kg	5.71 h	8700 ng·h/mL	8270 ng·h/mL	0.756 L/kg	17.5 mL/min/kg	1.66 h	14.3 mL/min/kg	4.02 h	385 mL/min/kg	0.236 h	107 mL/min/kg	0.314 h	–	–	–	–	Cmax ([1]; po, 5 mg/kg): 6330 ng/mL; Tmax ([1]; po, 5 mg/kg): 1.33 h; half-life ([1]; po, 5 mg/kg): 5.1 h; AUC(0-inf) ([1]; po, 5 mg/kg): 49600 ng·h/mL; AUC(0-t) ([1]; po, 5 mg/kg, po, 5 mg/kg, AUC in 0-24 hours, read-out: AUClast): 47900 ng·h/mL; F ([1]; po, 5 mg/kg): 114.1%
CCOC(=O)C1=C(CN2CCO[C@H](CCC(=O)O)C2)NC(c2nccs2)=N[C@H]1c1ccc(F)cc1Cl [Example 9, 3-((R)-4-(((R)-6-(2-Chloro-4-fluorophenyl)-5-(ethoxycarbonyl)-2-(thiazol-2-yl)-3,6-dihydropyrimidin-4-yl)methyl)morpholin-2-yl)propanoic acid]	48 nM	2570 ng/mL	0.083 h	1.51 mL/min/kg	6.59 h	11300 ng·h/mL	10600 ng·h/mL	0.63 L/kg	11.4 mL/min/kg	2.53 h	19.4 mL/min/kg	2.96 h	281 mL/min/kg	0.324 h	75.6 mL/min/kg	0.447 h	48 nM	4360 ng/mL	0.5 h	4.62 h	AUC(0-inf) ([1]; po, 2.5 mg/kg): 24800 ng·h/mL; AUC(0-t) [1, 9]: 48600 ng·h/mL; AUC(0-t) [1, 10]: 24300 ng·h/mL; F ([1]; po, 2.5 mg/kg): 87.91%
COC(=O)C1=C(CN2CCO[C@H](CCC(=O)O)C2)NC(c2nccs2)=N[C@H]1c1ccc(F)cc1Cl [Example 10, 3-((R)-4-(((R)-6-(2-Chloro-4-fluorophenyl)-5-(methoxycarbonyl)-2-(thiazol-2-yl)-3,6-dihydropyrimidin-4-yl)methyl)morpholin-2-yl)propanoic acid]	45 nM	2430 ng/mL	0.083 h	1.74 mL/min/kg	5.16 h	9710 ng·h/mL	9400 ng·h/mL	0.62 L/kg	3.72 mL/min/kg	7.78 h	6.13 mL/min/kg	9.39 h	57.7 mL/min/kg	1.58 h	15.4 mL/min/kg	2.19 h	–	4560 ng/mL	0.833 h	4.57 h	AUC(0-inf) ([1]; po, 2.5 mg/kg): 28000 ng·h/mL; AUC(0-t) [1, 9]: 54000 ng·h/mL; AUC(0-t) [1, 10]: 27400 ng·h/mL; F ([1]; po, 2.5 mg/kg): 115%
COC(=O)C1=C(CN2CCO[C@H](CCC(=O)O)C2)NC(c2nccs2)=N[C@H]1c1ccc(F)cc1Br [Example 11, 3-((R)-4-(((R)-6-(2-Bromo-4-fluorophenyl)-5-(methoxycarbonyl)-2-(thiazol-2-yl)-3,6-dihydropyrimidin-4-yl)methyl)morpholin-2-yl)propanoic acid]	35 nM	3400 ng/mL	0.139 h	1.59 mL/min/kg	4.99 h	10900 ng·h/mL	10500 ng·h/mL	0.545 L/kg	6.93 mL/min/kg	4.18 h	10.1 mL/min/kg	5.72 h	86.3 mL/min/kg	1.05 h	14.4 mL/min/kg	2.34 h	–	4310 ng/mL	0.75 h	4.92 h	AUC(0-inf) ([1]; po, 2.5 mg/kg): 24400 ng·h/mL; AUC(0-t) [1, 9]: 47400 ng·h/mL; AUC(0-t) [1, 10]: 23700 ng·h/mL; F ([1]; po, 2.5 mg/kg): 89.66%
CCOC(=O)C1=C(CN2CCOC[C@@H]2CCC(=O)O)NC(c2nccs2)=N[C@@H]1c1ccc(F)cc1Br [Example 48, 3-((S)-4-(((S)-6-(2-Bromo-4-fluorophenyl)-5-(ethoxycarbonyl)-2-(thiazol-2-yl)-3,6-dihydropyrimidin-4-yl)methyl)morpholin-3-yl)propanoic acid]	> 10300 nM	–	–	–	–	–	–	–	–	–	–	–	–	–	–	–	–	–	–	–	–
COC(=O)C1=C(CN2CCOC[C@H]2CCC(=O)O)NC(c2nccs2)=N[C@@H]1c1ccc(F)cc1Br [Example 49, 3-((R)-4-(((S)-6-(2-Bromo-4-fluorophenyl)-5-(methoxycarbonyl)-2-(thiazol-2-yl)-3,6-dihydropyrimidin-4-yl)methyl)morpholin-3-yl)propanoic acid]	> 16400 nM	–	–	–	–	–	–	–	–	–	–	–	–	–	–	–	–	–	–	–	–
COC(=O)C1=C(CN2CCOC[C@@H]2CCC(=O)O)NC(c2nccs2)=N[C@@H]1c1ccc(F)cc1Br [Example 50, 3-((S)-4-(((S)-6-(2-Bromo-4-fluorophenyl)-5-(methoxycarbonyl)-2-(thiazol-2-yl)-3,6-dihydropyrimidin-4-yl)methyl)morpholin-3-yl)propanoic acid]	> 10900 nM	–	–	–	–	–	–	–	–	–	–	–	–	–	–	–	–	–	–	–	–
CCOC(=O)C1=C(CN2CCO[C@H](CCC(=O)O)C2)NC(c2nccs2)=N[C@@H]1c1ccc(F)cc1Cl [Example M3]	–	–	–	–	–	–	–	–	–	–	–	–	–	–	–	–	> 16400 nM	–	–	–	–
CCOC(=O)C1=C(CN2CCO[C@@H](CCC(=O)O)C2)NC(c2nccs2)=N[C@@H]1c1ccc(F)cc1Cl [Example M4]	–	–	–	–	–	–	–	–	–	–	–	–	–	–	–	–	> 16400 nM	–	–	–	–
